We go through 2 compounds from ChEMBL document CHEMBL5303573, “Mapping human microbiome drug metabolism by gut bacteria and their genes” (Nature, 2019).

One data set is described as follows: The drug is tested on Edwardsiella tarda strain: ATCC23685 for biotransformation. The drug concentrations were measured before and after a 12-h incubation by liquid-chromatography-coupled mass spectrometry (LC–MS). To be noted: 2 µM.
For `CNS(=O)(=O)Cc1ccc2[nH]cc(CCN(C)C)c2c1.O=C(O)CCC(=O)O` [SUMATRIPTAN SUCCINATE], the “Bacterial Biotransformation” value is recorded as “Compound NOT metabolized”.
As for `OC(CCN1CCCCC1)(c1ccccc1)C1CCCCC1` (stereo not given) [TRIHEXYPHENIDYL], the “Bacterial Biotransformation” value was “Compound NOT metabolized”.

The nature of another data set: The drug is tested on Bacteroides fragilis strain: HMW610 for biotransformation. The drug concentrations were measured before and after a 12-h incubation by liquid-chromatography-coupled mass spectrometry (LC–MS). To be noted: 2 µM.
For the compound `CNS(=O)(=O)Cc1ccc2[nH]cc(CCN(C)C)c2c1.O=C(O)CCC(=O)O` [SUMATRIPTAN SUCCINATE], the “Bacterial Biotransformation” value was “Compound metabolized”.
Still for that read-out and setting: next, `OC(CCN1CCCCC1)(c1ccccc1)C1CCCCC1` (stereo not given) [TRIHEXYPHENIDYL]: “Compound NOT metabolized”.

The next data set can be described thus: The drug is tested on Collinsella intestinalis strain: DSM13280 for biotransformation. The drug concentrations were measured before and after a 12-h incubation by liquid-chromatography-coupled mass spectrometry (LC–MS). To be noted: 2 µM.
In the case of `CNS(=O)(=O)Cc1ccc2[nH]cc(CCN(C)C)c2c1.O=C(O)CCC(=O)O` [SUMATRIPTAN SUCCINATE], the “Bacterial Biotransformation” value was “Compound NOT metabolized”.
Same read-out and setting: the result for `OC(CCN1CCCCC1)(c1ccccc1)C1CCCCC1` (stereo not given) [TRIHEXYPHENIDYL] reads “Compound NOT metabolized”.

The conditions of the next data set: enterocloster bolteae, 12 h, 2 µM.
Description: The drug is tested on Clostridium bolteae strain: ATCCBAA-613 for biotransformation. The drug concentrations were measured before and after a 12-h incubation by liquid-chromatography-coupled mass spectrometry (LC–MS)
As for `CNS(=O)(=O)Cc1ccc2[nH]cc(CCN(C)C)c2c1.O=C(O)CCC(=O)O` [SUMATRIPTAN SUCCINATE], the “Bacterial Biotransformation” value is recorded as “Compound NOT metabolized”.

A short description of another data set: The drug is tested on Bacteroides sp. WH2 strain: WH2 for biotransformation. The drug concentrations were measured before and after a 12-h incubation by liquid-chromatography-coupled mass spectrometry (LC–MS). To be noted: bacteroides sp. wh2, 12 h, 2 µM.
For `CNS(=O)(=O)Cc1ccc2[nH]cc(CCN(C)C)c2c1.O=C(O)CCC(=O)O` [SUMATRIPTAN SUCCINATE], the “Bacterial Biotransformation” value is given as “Compound NOT metabolized”.
Take `OC(CCN1CCCCC1)(c1ccccc1)C1CCCCC1` (stereo not given) [TRIHEXYPHENIDYL]: the “Bacterial Biotransformation” value is “Compound NOT metabolized”.

Another data set can be described thus: The drug is tested on Bifidobacterium longum subsp. Infantis strain: CCUG52486 for biotransformation. The drug concentrations were measured before and after a 12-h incubation by liquid-chromatography-coupled mass spectrometry (LC–MS). The following applies: 2 µM.
Regarding `CNS(=O)(=O)Cc1ccc2[nH]cc(CCN(C)C)c2c1.O=C(O)CCC(=O)O` [SUMATRIPTAN SUCCINATE], the “Bacterial Biotransformation” value is recorded as “Compound NOT metabolized”.
In the case of `OC(CCN1CCCCC1)(c1ccccc1)C1CCCCC1` (stereo not given) [TRIHEXYPHENIDYL], the “Bacterial Biotransformation” value is “Compound NOT metabolized”.

The next data set is described as follows: The drug is tested on Providencia stuartii strain: ATCC25827 for biotransformation. The drug concentrations were measured before and after a 12-h incubation by liquid-chromatography-coupled mass spectrometry (LC–MS). To be noted: 2 µM.
As for `CNS(=O)(=O)Cc1ccc2[nH]cc(CCN(C)C)c2c1.O=C(O)CCC(=O)O` [SUMATRIPTAN SUCCINATE], the “Bacterial Biotransformation” value is listed as “Compound NOT metabolized”.
Same read-out and setting: next, `OC(CCN1CCCCC1)(c1ccccc1)C1CCCCC1` (stereo not given) [TRIHEXYPHENIDYL]: “Compound NOT metabolized”.

A further data set can be described thus: The drug is tested on Collinsella aerofaciens strain: ATCC25986 for biotransformation. The drug concentrations were measured before and after a 12-h incubation by liquid-chromatography-coupled mass spectrometry (LC–MS). To be noted: 2 µM.
On to `CNS(=O)(=O)Cc1ccc2[nH]cc(CCN(C)C)c2c1.O=C(O)CCC(=O)O` [SUMATRIPTAN SUCCINATE], for which the “Bacterial Biotransformation” value was “Compound NOT metabolized”.
On the same count and under the same terms, next, `OC(CCN1CCCCC1)(c1ccccc1)C1CCCCC1` (stereo not given) [TRIHEXYPHENIDYL]: “Compound NOT metabolized”.

A further data set in a line: The drug is tested on Parabacteroides merdae strain: ATCC43184 for biotransformation. The drug concentrations were measured before and after a 12-h incubation by liquid-chromatography-coupled mass spectrometry (LC–MS). To be noted: 2 µM.
Turning to `CNS(=O)(=O)Cc1ccc2[nH]cc(CCN(C)C)c2c1.O=C(O)CCC(=O)O` [SUMATRIPTAN SUCCINATE], the “Bacterial Biotransformation” value was “Compound NOT metabolized”.

The next data set in a line: The drug is tested on Bacteroides pectinophilus strain: ATCC43243 for biotransformation. The drug concentrations were measured before and after a 12-h incubation by liquid-chromatography-coupled mass spectrometry (LC–MS). To be noted: 2 µM.
Take `CNS(=O)(=O)Cc1ccc2[nH]cc(CCN(C)C)c2c1.O=C(O)CCC(=O)O` [SUMATRIPTAN SUCCINATE]: the “Bacterial Biotransformation” value was “Compound NOT metabolized”.
Same read-out and setting: next, `OC(CCN1CCCCC1)(c1ccccc1)C1CCCCC1` (stereo not given) [TRIHEXYPHENIDYL]: “Compound NOT metabolized”.

The conditions of a further data set: bacteroides eggerthii, 12 h, 2 µM.
Description: The drug is tested on Bacteroides eggerthii strain: DSM20697 for biotransformation. The drug concentrations were measured before and after a 12-h incubation by liquid-chromatography-coupled mass spectrometry (LC–MS)
For `CNS(=O)(=O)Cc1ccc2[nH]cc(CCN(C)C)c2c1.O=C(O)CCC(=O)O` [SUMATRIPTAN SUCCINATE], the “Bacterial Biotransformation” value is “Compound NOT metabolized”.

For the next data set the following is noted: bacteroides intestinalis, 12 h, 2 µM.
Description: The drug is tested on Bacteroides intestinalis strain: DSM17393 for biotransformation. The drug concentrations were measured before and after a 12-h incubation by liquid-chromatography-coupled mass spectrometry (LC–MS)
Turning to `CNS(=O)(=O)Cc1ccc2[nH]cc(CCN(C)C)c2c1.O=C(O)CCC(=O)O` [SUMATRIPTAN SUCCINATE], the “Bacterial Biotransformation” value was “Compound NOT metabolized”.
Same read-out and setting: next, `OC(CCN1CCCCC1)(c1ccccc1)C1CCCCC1` (stereo not given) [TRIHEXYPHENIDYL]: “Compound NOT metabolized”.

For a further data set the following is noted: limosilactobacillus reuteri cf48-3a, 12 h, 2 µM.
Description: The drug is tested on Lactobacillus reuteri CF48-3A strain: BEI HM-102 for biotransformation. The drug concentrations were measured before and after a 12-h incubation by liquid-chromatography-coupled mass spectrometry (LC–MS)
As to `CNS(=O)(=O)Cc1ccc2[nH]cc(CCN(C)C)c2c1.O=C(O)CCC(=O)O` [SUMATRIPTAN SUCCINATE], the “Bacterial Biotransformation” value is recorded as “Compound NOT metabolized”.
On the same count and under the same terms, the result for `OC(CCN1CCCCC1)(c1ccccc1)C1CCCCC1` (stereo not given) [TRIHEXYPHENIDYL] reads “Compound NOT metabolized”.

A short description of another data set: The drug is tested on Anaerococcus hydrogenalis strain: DSM7454 for biotransformation. The drug concentrations were measured before and after a 12-h incubation by liquid-chromatography-coupled mass spectrometry (LC–MS). To be noted: 2 µM.
For `CNS(=O)(=O)Cc1ccc2[nH]cc(CCN(C)C)c2c1.O=C(O)CCC(=O)O` [SUMATRIPTAN SUCCINATE], the “Bacterial Biotransformation” value is listed as “Compound NOT metabolized”.
Still for that read-out and setting: next, `OC(CCN1CCCCC1)(c1ccccc1)C1CCCCC1` (stereo not given) [TRIHEXYPHENIDYL]: “Compound NOT metabolized”.

Another data set in a line: The drug is tested on Clostridium asparagiforme strain: DSM15981 for biotransformation. The drug concentrations were measured before and after a 12-h incubation by liquid-chromatography-coupled mass spectrometry (LC–MS). The format is ADME. The arrangement: dose 2 uM, timepoint 0 vs 12 hours. The following applies: enterocloster asparagiformis, 2 µM.
Consider `CNS(=O)(=O)Cc1ccc2[nH]cc(CCN(C)C)c2c1.O=C(O)CCC(=O)O` [SUMATRIPTAN SUCCINATE], for which the “Bacterial Biotransformation” value is “Compound NOT metabolized”.
As to `OC(CCN1CCCCC1)(c1ccccc1)C1CCCCC1` (stereo not given) [TRIHEXYPHENIDYL], the “Bacterial Biotransformation” value was “Compound NOT metabolized”.

The next data set can be described thus: The drug is tested on Ruminococcus gnavus strain: ATCC29149 for biotransformation. The drug concentrations were measured before and after a 12-h incubation by liquid-chromatography-coupled mass spectrometry (LC–MS). To be noted: mediterraneibacter gnavus, 2 µM.
On to `CNS(=O)(=O)Cc1ccc2[nH]cc(CCN(C)C)c2c1.O=C(O)CCC(=O)O` [SUMATRIPTAN SUCCINATE], for which the “Bacterial Biotransformation” value is on record as “Compound NOT metabolized”.
Turning to `OC(CCN1CCCCC1)(c1ccccc1)C1CCCCC1` (stereo not given) [TRIHEXYPHENIDYL], the “Bacterial Biotransformation” value is “Compound NOT metabolized”.

Another data set is described as follows: The drug is tested on Bacteroides dorei strain: DSM17855 for biotransformation. The drug concentrations were measured before and after a 12-h incubation by liquid-chromatography-coupled mass spectrometry (LC–MS). The following applies: phocaeicola dorei, 2 µM.
As for `OC(CCN1CCCCC1)(c1ccccc1)C1CCCCC1` (stereo not given) [TRIHEXYPHENIDYL], the “Bacterial Biotransformation” value is on record as “Compound metabolized”.
